The assay relates to spontaneously hypertensive rats. Put plainly: Spontaneously Hypertensive Rat (SHR) test. The format is in vivo. Particulars: oral dose 30 mg/kg. From the text:
The activity of compounds of formula (I) for the treatment of hypertension may be determined using the Spontaneously Hypertensive Rat (SHR) test as described below.
In this test, the arterial pressure of adult spontaneously hypertensive rats (Charles River) is monitored directly via an aortic cannula. The SH rats are anesthetized with an inhalation anesthetic (ether). The left carotid artery is isolated and cannulated. The tip of the cannula is advanced to the aorta and the cannula is exteriorized behind the neck at the level of the scapula. Animals are placed in individual cages and allowed to recover from the anesthetic and are kept unrestrained. The arterial cannula is connected to the pressure transducer which is attached to the recorder. The test compounds are administered to at least 3 rats at doses selected in the range of 0.1 to 100 mg/kg of body weight by intraperitoneal (i.p.) or oral (p.o.) routes of administration. The arterial pressure and heart rate are monitored for a minimum of 24 hours. A test compound is considered to be active as an antihypertensive agent if the mean arterial pressure (MAP) indicates a fall of >15 mm of Hg. Each animal serves as its own control.

Structures can show the parent of a compound that is named as a salt.

For `CC(C)(C)NCC(O)COc1ccccc1C#Cc1cccnc1` (stereo not drawn) [Example 2, 1-[(1,1-Dimethylethyl)amino]-3-[2-(3-pyridinylethynyl)phenoxy]-2-propanol Hydrochloride Hydrate (4:4:1)], the “duration of blood pressure reduction” value was 10.5 h, the heart rate change is reported as -41 beats/min and the “reduction of hypertensive blood pressure (mean arterial pressure)” value was -54 mm Hg.

As for `CC(C)(C)NCC(O)COc1ccccc1C#Cc1ccncc1.O=C(O)/C=C/C(=O)O` (stereo not drawn) [Example 1, 1-[(1,1-Dimethylethyl)amino]-3-[2-(4-pyridinylethynyl)phenoxy]-2-propanol (E)-2-Butenedioate], the “duration of blood pressure reduction” value turned out to be 7.5 h, the heart rate change was -87 beats/min and the “reduction of hypertensive blood pressure (mean arterial pressure)” value is recorded as -46 mm Hg.

The record behind these values is patent US4663334A, “Heteroaromatic acetylenes useful as antihypertensive agents” (McNeilab, Inc., priority 1985, dated 1987).
